Source: patent US20230065953A1, “NOVEL HETEROARYL-TRIAZOLE COMPOUNDS AS PESTICIDES” (Bayer Aktiengesellschaft, priority 2019, published 2023)

Key:
Assay type in all cases: in vivo
[1] = test system: Rhipicephalus microplus larvae (strain Parkhurst, resistant against synthetic pyrethroids); assay: Rhipicephalus (Boophilus) microplus in-vitro contact test, larval cattle tick; conditions: 5 μg/cm^2 (=500 g/ha), after 48 hours, read-out: efficacy (larvae dead or moribund)
Description: Rhipicephalus (Boophilus) Microplus—In-Vitro Contact Tests Larval Cattle Tick (Strain Parkhurst, Resistant Against Synthetic Pyrethroids)
(§1) 9 mg compound is solved in 1 mL acetone and diluted with acetone to the desired concentration. 250 μL of the test solution is filled in 25 mL glass test tubes and homogeneously distributed on the inner walls by rotation and tilting on a shaking device (2 h at 30 rpm). With a compound concentration of 900 ppm, an inner surface of 44.7 cm^2 and a homogeneous distribution, a dose of 5 μg/cm^2 is achieved.
After the solvent has evaporated, each test tube is filled with 20-50 cattle tick larvae (Rhipicephalus microplus), closed with a perforated lid and incubated in a horizontal position at 85% relative humidity and 27° C. in an incubator. After 48 hours efficacy is determined. The larvae are patted on the ground of the tubes and negative geotactic behavior is recorded.
An efficacy of 100% means all larvae are dead or moribund; 0% means no larvae are dead or moribund.

[2] = test system: adult engorged female ticks (Rhipicephalus microplus); assay: Rhipicephalus (Boophilus) microplus injection test; conditions: 168 h, 4 μg/animal, egg deposition after 7 days, read-out: efficacy (infertile eggs)
Description: Rhipicephalus (Boophilus) Microplus—Injection Test
(§2) Solvent: dimethyl sulfoxide
To produce a suitable preparation of active compound, 10 mg of active compound are dissolved in 0.5 mL solvent, and the concentrate is diluted with solvent to the desired concentration.
Five adult engorged female ticks (Rhipicephalus microplus) are injected with 1 μL compound solution into the abdomen. The ticks are transferred into replica plates and incubated in a climate chamber.
After 7 days egg deposition of fertile eggs is monitored. Eggs where fertility is not visible are stored in a climate chamber till hatching after about 42 days. An efficacy of 100% means all eggs are infertile; 0% means all eggs are fertile.

[3] = test system: adult unfed cat fleas (Ctenocephalides felis); assay: Ctenocephalides felis oral test; conditions: 48 h
Description: Ctenocephalides felis—Oral Test
as §2
To produce a suitable preparation of active compound, 10 mg of active compound are dissolved in 0.5 mL solvent, and the concentrate is diluted with cattle blood to the desired concentration.
Approximately 20 adult unfed cat fleas (Ctenocephalides felis) are placed in flea chambers. The blood chamber, sealed with parafilm on the bottom, are filled with cattle blood supplied with compound solution and placed on the gauze covered top of the flea chamber, so that the fleas are able to suck the blood. The blood chamber is heated to 37° C. whereas the flea chamber is kept at room temperature.
After 2 days mortality in % is determined. 100% means all the fleas have been killed; 0% means none of the fleas have been killed.

[4] = test system: larvae of the banded cucumber beetle (Diabrotica balteata); assay: Diabrotica balteata spray test; conditions: 168 h, 100 g/ha (=32 μg/well), wheat seeds, after 7 days, read-out: efficacy (seedling growth)
How it was run: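 Wheat seeds germinated 1 day on agar were sprayed with compound in acetone/dimethylformamide with alkylarylpolyglycol ether emulsifier, diluted in emulsifier-containing water. Each unit then received 10-20 larvae, and % efficacy was scored after 7 days.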

[5] = test system: fall armyworm larvae (Spodoptera frugiperda); assay: Spodoptera frugiperda spray test (maize leaf sections); conditions: 168 h
How it was run: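 Maize leaf sections sprayed with compound in acetone/dimethylformamide, diluted in water with 1000 ppm alkylarylpolyglycol ether emulsifier. Dried sections infested with fall armyworm larvae. Mortality (%) scored after 7 days; 100% = all caterpillars killed.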

[6] = test system: adult cat fleas (Ctenocephalides felis); assay: Ctenocephalides felis in-vitro contact test, adult cat flea; conditions: 5 μg/cm^2 (=500 g/ha), after 48 hours
Description: Ctenocephalides felis—In-Vitro Contact Tests Adult Cat Flea
as §1
After the solvent has evaporated, each test tube is filled with 5-10 adult cat fleas (Ctenocephalides felis), closed with a perforated lid and incubated in a lying position at room temperature and relative humidity. After 48 hours efficacy is determined. The fleas are patted on the ground of the tubes and are incubated on a heating plate at 45-50° C. for at most 5 minutes. Immotile or uncoordinated moving fleas, which are not able to escape the heat by climbing upwards, are marked as dead or moribund.
An efficacy of 100% means all fleas are dead or moribund; 0% means no fleas are dead or moribund.

[7] = test system: green peach aphid (Myzus persicae); assay: Myzus persicae oral test; conditions: 120 h
Description: Myzus persicae—oral test • Solvent: 100 parts by weight acetone
To produce a suitable preparation of active compound, 1 part by weight of active compound is mixed with the stated amount of solvent, and the concentrate is diluted with water to the desired concentration. 50 μL compound solution is filled in microtiter plates and 150 μL IPL41 insect medium (33%+15% sugar) is added to obtain a total volume of 200 μL per well. Afterwards the plates are sealed with parafilm through which a mixed population of the green peach aphid (Myzus persicae) can suck on the compound preparation.
(§3) After 5 days mortality in % is determined. 100% means all aphids have been killed and 0% means none of the aphids have been killed.

[8] = test system: green peach aphid (Myzus persicae); assay: Myzus persicae spray test; conditions: foliar, 120 h, Chinese cabbage leaf disks, after 5 days
Description: Myzus persicae—Spray Test • Solvent: 78.0 parts by weight acetone • 1.5 parts by weight dimethylformamide • Emulsifier: alkylarylpolyglycol ether
To produce a suitable preparation of active compound, 1 part by weight of active compound is mixed with the stated amount of solvents and is diluted with water, containing an emulsifier concentration of 1000 ppm, to the desired concentration. Further test concentrations are prepared by dilution with emulsifier containing water.
Chinese cabbage (Brassica pekinensis) leaf disks infected with all instars of the green peach aphid (Myzus persicae), are sprayed with a preparation of the active ingredient of the desired concentration.
as §3

[9] = test system: larvae of the southern green stink bug (Nezara viridula); assay: Nezara viridula spray test; conditions: in Hordeum vulgare, 96 h
Description: Nezara viridula—Spray Test • Solvent: 78.0 parts by weight of acetone • 1.5 parts by weight of dimethylformamide • Emulsifier: alkylarylpolyglycol ether
To produce a suitable preparation of active compound, 1 part by weight of active compound is mixed with the stated amount of solvent, and the concentrate is diluted with water, containing an emulsifier concentration of 1000 ppm, to the desired concentration. Further test concentrations are prepared by dilution with emulsifier containing water.
Barley plants (Hordeum vulgare) are sprayed with a test solution containing the desired concentration of the active ingredient and are infested with larvae of the southern green stink bug (Nezara viridula).
After 4 days mortality in % is determined. 100% means all the stink bugs have been killed; 0% means none of the stink bugs have been killed.

| SMILES | pest or weed control at 5 µg/cm2 [1] [%] | pest or weed control at 0.004 mg [2] [%] | mortality at 100 ppm [3] [%] | pest or weed control at 32 µg/disc, 100 g/ha [4] [%] | mortality at 100 g/ha [5] [%] | efficacy (fleas dead or moribund) [6] [%] | mortality at 4 ppm [7] [%] | mortality at 100 g/ha [8] [%] | mortality at 100 g/ha [9] [%] | mortality at 500 g/ha [9] [%] |
| --- | --- | --- | --- | --- | --- | --- | --- | --- | --- | --- |
| Cc1nc([C@H](C)NC(=O)c2cc(C#N)cc(C(F)(F)F)c2)n(-c2ncc(C#N)s2)n1 [I-16] | 100 | 100 | 100 | 100 | 100 | – | – | – | – | – |
| CC(NC(=O)c1cc(Cl)cc(OC(F)(F)F)c1)c1ncnn1-c1ncc(C#N)s1 (stereo not shown) [I-28] | 100 | – | – | 100 | 100 | 100 | – | – | – | – |
| CC(NC(=O)c1cc(Cl)cc(S(F)(F)(F)(F)F)c1)c1ncnn1-c1ncc(C#N)s1 (stereo not shown) [I-32] | 90 | 100 | 100 | 100 | 100 | – | – | – | – | – |
| CC(NC(=O)c1cc(OC(F)F)cc(C(F)F)c1)c1ncnn1-c1ncc(C#N)s1 (stereo not shown) [I-34] | 90 | 100 | 100 | 100 | 100 | – | 100 | – | – | – |
| CC(NC(=O)c1cc(OC(F)F)cc(C2CC2)c1)c1ncnn1-c1ncc(C#N)s1 (stereo not shown) [I-35] | 100 | 100 | 100 | 100 | 100 | – | 100 | 90 | – | – |
| CC(NC(=O)c1cc(OC(F)(F)F)cc(S(C)(=O)=O)c1)c1ncnn1-c1ncc(C#N)s1 (stereo not shown) [I-37] | – | 100 | 100 | 100 | 100 | 80 | 100 | – | – | – |
| Cc1nc([C@H](C)NC(=O)c2cc(Br)cc(C#N)c2)n(-c2ncc(C(=O)N(C)C)s2)n1 [I-70] | 70 | – | – | – | – | 100 | – | – | – | – |
| Cc1nc([C@H](C)NC(=O)c2cc(Br)cc(Br)c2)n(-c2ncc(C(=O)N(C)C)s2)n1 [I-71] | 100 | – | – | 100 | – | 100 | – | – | – | – |
| Cc1nc([C@H](C)NC(=O)c2cc(Br)cc(C#N)c2)n(-c2ncc(C(=O)N(C)CC#N)s2)n1 [I-75] | 90 | – | – | 100 | – | 90 | 100 | – | – | – |
| Cc1nc([C@H](C)NC(=O)c2cc(Cl)cc(I)c2)n(-c2ncc(C(=O)N(C)C)s2)n1 [I-76] | 100 | – | – | – | 100 | 80 | – | – | – | – |
| CC(NC(=O)c1cc(C(F)(F)F)cc(S(C)(=O)=O)c1)c1ncnn1-c1ncc(C#N)s1 (stereo not shown) [I-82] | 90 | 100 | 100 | 80 | 100 | 80 | 100 | – | 90 | – |
| Cc1nc([C@H](C)NC(=O)c2cc(C(F)(F)F)cc(S(C)(=O)=O)c2)n(-c2ncc(C(=O)N(C)C)s2)n1 [I-83] | – | 100 | 100 | – | – | 80 | 100 | – | – | – |
| Cc1nc([C@H](C)NC(=O)c2cc(C(F)(F)F)cc(S(C)(=O)=O)c2)n(-c2ncc(C(=O)N(C)CC#N)s2)n1 [I-84] | 80 | 100 | 100 | 100 | – | – | 100 | – | 100 | – |
| Cc1nc([C@H](C)NC(=O)c2cc(Br)cc(OC(F)(F)F)c2)n(-c2ncc(C(=O)N(C)CC3CC3)s2)n1 [I-124] | 100 | – | – | 100 | 100 | 100 | – | – | 100 | 100 |
| Cc1nc([C@H](C)NC(=O)c2cc(Br)cc(OC(F)(F)F)c2)n(-c2ncc(C(=O)N(C)C(C)C)s2)n1 [I-126] | 100 | – | – | 100 | 100 | 80 | – | – | – | – |
